Measured values as given in patent US20230265116A1, “DEGRADATION OF (EGFR) BY CONJUGATION OF EGFR INHIBITORS WITH E3 LIGASE LIGAND AND METHODS OF USE” (BEIGENE, LTD., priority 2020, published 2023).

Key:
[1] = system: EGFR Del19/T790M/C797S (BaF3-DTC cells); assay: EGFR degradation HTRF assay, BaF3-DTC cells; format: cell-based; details: 16h treatment; for DTC Dmax (%): maximum percentage of degradation; for DC50: read-out: DTC DC50
Outline: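 BaF3 (WT, Del19/T790M/C797S) and HCC827 cells exposed 16 h at 37 °C, 5% CO2 to compounds in 0.2% DMSO medium, 8 doses from 10 uM top, 5-fold steps. Lysates read by HTRF (665/620 nm); degradation % vs DMSO control, DC50 from four-parameter fit, Dmax as maximal degradation.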

[2] = molecular target: T1, EGFR L858R/T790M/C797S (BaF3-LTC cells) (Homo sapiens, UniProt P00533, C797S/L858R/T790M); assay: EGFR degradation HTRF assay, BaF3-LTC cells; format: cell-based; details: BaF3-LTC, 16h treatment; for Dmax: maximum percentage of degradation, read-out: LTC Dmax (%); for DC50: read-out: LTC DC50
T1 construct: expressed in transfected cells; host or cells: BaF3
T1 sequence (P00533 25-1210 T790M/C797S/L858R): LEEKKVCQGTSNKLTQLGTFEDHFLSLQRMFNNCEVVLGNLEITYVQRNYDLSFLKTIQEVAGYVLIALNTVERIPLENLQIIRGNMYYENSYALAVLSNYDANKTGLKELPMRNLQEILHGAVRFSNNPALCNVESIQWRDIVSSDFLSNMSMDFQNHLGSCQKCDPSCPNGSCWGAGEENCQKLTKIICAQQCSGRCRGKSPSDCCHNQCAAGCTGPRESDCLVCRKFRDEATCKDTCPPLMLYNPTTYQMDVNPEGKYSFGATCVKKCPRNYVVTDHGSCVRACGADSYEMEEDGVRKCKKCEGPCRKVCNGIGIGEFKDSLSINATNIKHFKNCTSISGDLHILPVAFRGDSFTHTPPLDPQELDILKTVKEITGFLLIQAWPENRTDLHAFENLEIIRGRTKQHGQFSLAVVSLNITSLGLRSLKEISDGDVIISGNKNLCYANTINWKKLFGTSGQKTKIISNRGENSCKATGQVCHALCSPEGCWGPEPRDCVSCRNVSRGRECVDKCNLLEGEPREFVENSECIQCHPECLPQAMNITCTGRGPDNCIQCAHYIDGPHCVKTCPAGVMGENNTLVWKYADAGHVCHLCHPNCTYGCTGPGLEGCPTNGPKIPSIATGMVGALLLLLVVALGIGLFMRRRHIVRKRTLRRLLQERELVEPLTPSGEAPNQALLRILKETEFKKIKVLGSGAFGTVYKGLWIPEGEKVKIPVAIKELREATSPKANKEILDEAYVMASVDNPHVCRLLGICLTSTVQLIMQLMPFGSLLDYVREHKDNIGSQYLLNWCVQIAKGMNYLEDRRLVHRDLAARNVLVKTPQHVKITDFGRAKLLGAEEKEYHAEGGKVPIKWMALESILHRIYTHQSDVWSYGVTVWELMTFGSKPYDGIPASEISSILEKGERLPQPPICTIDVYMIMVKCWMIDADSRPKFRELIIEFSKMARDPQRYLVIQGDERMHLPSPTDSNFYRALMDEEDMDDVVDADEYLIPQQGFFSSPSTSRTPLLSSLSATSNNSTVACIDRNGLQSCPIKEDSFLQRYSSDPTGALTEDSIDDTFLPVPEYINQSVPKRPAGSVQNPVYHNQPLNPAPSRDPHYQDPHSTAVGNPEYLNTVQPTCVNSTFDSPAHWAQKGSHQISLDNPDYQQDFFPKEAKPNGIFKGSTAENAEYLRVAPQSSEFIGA
Outline: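 Cells treated 16 h at 37 °C, 5% CO2 in medium with 0.2% DMSO; top final concentration 10 uM, 5-fold dilution, 8 doses. Lysates read by HTRF (665/620 nm); degradation % versus DMSO high control, DC50 from four-parameter fit, Dmax as maximal degradation.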

SMILES	DC50 [1]	Dmax [2]	DC50 [2]	DTC Dmax (%) [1]
CCc1cc(Nc2ncc(Br)c(Nc3ccc4nccnc4c3P(C)(C)=O)n2)c(OC)cc1N1CCC(N2CCN(C(=O)[C@H]3C[C@H](Nc4ccc(C5CCC(=O)NC5=O)cc4)C3)CC2)CC1 (stereo partly drawn) [Example 298, 3-(4-(((1r,3r)-3-(4-(1-(4-((5-bromo-4-((5-(dimethylphosphoryl)quinoxalin-6-yl)amino)pyrimidin-2-yl)amino)-2-ethyl-5-methoxyphenyl)piperidin-4-yl)piperazine-1-carbonyl)cyclobutyl)amino)phenyl)piperidine-2,6-dione]	4.38 nM	80.8%	16.7 nM	86.58%
CCc1cc(Nc2ncc(Br)c(Nc3ccc4nc(C)ccc4c3P(C)(C)=O)n2)c(OC)cc1N1CCC(N2CCN(CCc3ccc4nn(C5CCC(=O)NC5=O)cc4c3)CC2)CC1 (stereo not drawn) [Example 257, 3-(5-(2-(4-(1-(4-((5-bromo-4-((5-(dimethylphosphoryl)-2-methylquinolin-6-yl)amino)pyrimidin-2-yl)amino)-2-ethyl-5-methoxyphenyl)piperidin-4-yl)piperazin-1-yl)ethyl)-2H-indazol-2-yl)piperidine-2,6-dione]	3.94 nM	90.7%	17.4 nM	93.75%
CCc1cc(Nc2ncc(Br)c(Nc3ccc4nccnc4c3P(C)(C)=O)n2)c(OC)cc1N1CCC(N2CCN(CC3CCN(c4cccc(C5CCC(=O)NC5=O)c4)CC3)CC2)CC1 (stereo not drawn) [Example 264, 3-(3-(4-((4-(1-(4-((5-bromo-4-((5-(dimethylphosphoryl)quinoxalin-6-yl)amino)pyrimidin-2-yl)amino)-2-ethyl-5-methoxyphenyl)piperidin-4-yl)piperazin-1-yl)methyl)piperidin-1-yl)phenyl)piperidine-2,6-dione]	17.1 nM	86.2%	61 nM	74.58%
CCc1cc(Nc2ncc(Br)c(Nc3ccc4nccnc4c3P(C)(C)=O)n2)c(OC)cc1N1CCC(N2CCN(CCc3ccc(C4CCC(=O)NC4=O)c(F)c3)[C@H](CO)C2)CC1 (stereo partly drawn) [Example 291, 3-(4-(2-((S)-4-(1-(4-((5-bromo-4-((5-(dimethylphosphoryl)quinoxalin-6-yl)amino)pyrimidin-2-yl)amino)-2-ethyl-5-methoxyphenyl)piperidin-4-yl)-2-(hydroxymethyl)piperazin-1-yl)ethyl)-2-fluorophenyl)piperidine-2,6-dione]	7.9 nM	87.2%	23.6 nM	83.17%
COc1cc(N2CCC(N3CC4CC(C3)N4CCC3CCN(c4cc(F)c(C5CCC(=O)NC5=O)c(F)c4)CC3)CC2)c(C)cc1Nc1ncc(Br)c(Nc2ccc3nccnc3c2P(C)(C)=O)n1 (stereo not drawn) [Example 266, 3-(4-(4-(2-(3-(1-(4-((5-bromo-4-((5-(dimethylphosphoryl)quinoxaline-6-yl)amino)pyrimidin-2-yl)amino)-5-methoxy-2-methylphenyl)piperidin-4-yl)-3,6-diazabicyclo[3.1.1]heptan-6-yl)ethyl)piperidin-1-yl)-2,6-difluorophenyl)piperidine-2,6-dione]	50.3 nM	73.6%	81.9 nM	83.88%
CCc1cc(Nc2ncc(Br)c(Nc3ccc4nccnc4c3P(C)(C)=O)n2)c(OC)cc1N1CCC(N2CCN(C(=O)[C@H]3CCN(c4cccc(C5CCC(=O)NC5=O)c4)C3)CC2)CC1 (stereo partly drawn) [Example 225, 3-(3-((S)-3-(4-(1-(4-((5-bromo-4-((5-(dimethylphosphoryl)quinoxalin-6-yl)amino)pyrimidin-2-yl)amino)-2-ethyl-5-methoxyphenyl)piperidin-4-yl)piperazine-1-carbonyl)pyrrolidin-1-yl)phenyl)piperidine-2,6-dione]	6.98 nM	79.2%	48.9 nM	89.48%

Further compounds by falling DC50 [1], results first:

DC50 [1]	Dmax [2]	DC50 [2]	SMILES	DTC Dmax (%) [1]
17.4 nM	85.3%	43.7 nM	CCc1cc(Nc2ncc(Br)c(Nc3ccc4nccnc4c3P(C)(C)=O)n2)c(OC)cc1N1CCC(N2CCN(CCc3ccc(C4CCC(=O)NC4=O)c(F)c3)[C@@H](COC)C2)CC1 (stereo partly drawn) [Example 293, 3-(4-(2-((R)-4-(1-(4-((5-bromo-4-((5-(dimethylphosphoryl)quinoxalin-6-yl)amino)pyrimidin-2-yl)amino)-2-ethyl-5-methoxyphenyl)piperidin-4-yl)-2-(methoxymethyl)piperazin-1-yl)ethyl)-2-fluorophenyl)piperidine-2,6-dione]	83.85%
9.34 nM	88.3%	16.1 nM	CCc1cc(Nc2ncc(Br)c(Nc3ccc4nccnc4c3P(C)(C)=O)n2)c(OC)cc1N1CCC(N2C[C@@H](C)N(CC3CN(c4ccc5c(c4)C(=O)N(C4CCC(=O)NC4=O)C5=O)C3)[C@@H](C)C2)CC1 (stereo partly drawn) [Example 159, 5-(3-(((2R,6S)-4-(1-(4-((5-bromo-4-((5-(dimethylphosphoryl)quinoxalin-6-yl)amino)pyrimidin-2-yl)amino)-2-ethyl-5-methoxyphenyl)piperidin-4-yl)-2,6-dimethylpiperazin-1-yl)methyl)azetidin-1-yl)-2-(2,6-dioxopiperidin-3-yl)isoindoline-1,3-dione]	87.25%
7.09 nM	86.3%	19.8 nM	CCc1cc(Nc2ncc(Br)c(Nc3ccc4nccnc4c3P(C)(C)=O)n2)c(OC)cc1N1CCC(N2CCN(CC3CN(c4cc(F)c(C5CCC(=O)NC5=O)c(F)c4)C3)CC2)CC1 (stereo not drawn) [Example 253, 3-(4-(3-((4-(1-(4-((5-bromo-4-((5-(dimethylphosphoryl)quinoxalin-6-yl)amino)pyrimidin-2-yl)amino)-2-ethyl-5-methoxyphenyl)piperidin-4-yl)piperazin-1-yl)methyl)azetidin-1-yl)-2,6-difluorophenyl)piperidine-2,6-dione]	94.79%
4.88 nM	85%	36.4 nM	CCc1cc(Nc2ncc(Br)c(Nc3ccc4nccnc4c3P(C)(C)=O)n2)c(OC)cc1N1CCC(N2CCN(C3CCN(c4ccc(C5CCC(=O)NC5=O)cc4)CC3)CC2)CC1 (stereo not drawn) [Example 299, 3-(4-(4-(4-(1-(4-((5-bromo-4-((5-(dimethylphosphoryl)quinoxalin-6-yl)amino)pyrimidin-2-yl)amino)-2-ethyl-5-methoxyphenyl)piperidin-4-yl)piperazin-1-yl)piperidin-1-yl)phenyl)piperidine-2,6-dione]	80.72%
4.3 nM	89.8%	7.08 nM	CCc1cc(Nc2ncc(Br)c(Nc3ccc4nc(C)ccc4c3P(C)(C)=O)n2)c(OC)cc1N1CCC(N2CCN(CCc3cc(F)c(C4CCC(=O)NC4=O)c(F)c3)C[C@@H]2C)CC1 (stereo partly drawn) [Example 715, 3-(4-(2-((S)-4-(1-(4-((5-bromo-4-((5-(dimethylphosphoryl)-2-methylquinolin-6-yl)amino)pyrimidin-2-yl)amino)-2-ethyl-5-methoxyphenyl)piperidin-4-yl)-3-methylpiperazin-1-yl)ethyl)-2,6-difluorophenyl)piperidine-2,6-dione]	92.57%
1.13 nM	93.5%	3.67 nM	CCc1cc(Nc2ncc(Br)c(Nc3ccc4ncn(C)c(=O)c4c3P(C)(C)=O)n2)c(OC)cc1N1CCC(N2CCN(CCc3cc(F)c(C4CCC(=O)NC4=O)c(F)c3)CC2)CC1 (stereo not drawn) [Example 428, 3-(4-(2-(4-(1-(4-((5-bromo-4-((5-(dimethylphosphoryl)-3-methyl-4-oxo-3,4-dihydroquinazolin-6-yl)amino)pyrimidin-2-yl)amino)-2-ethyl-5-methoxyphenyl)piperidin-4-yl)piperazin-1-yl)ethyl)-2,6-difluorophenyl)piperidine-2,6-dione]	95.35%
0.984 nM	88.5%	9.91 nM	CCc1cc(Nc2ncc(Br)c(Nc3ccc4ncc(F)cc4c3P(C)(C)=O)n2)c(OC)cc1N1CCC(N2CCN(CCc3cc(F)c(C4CCC(=O)NC4=O)c(F)c3)CC2)CC1 (stereo not drawn) [Example 336, 3-(4-(2-(4-(1-(4-((5-bromo-4-((5-(dimethylphosphoryl)-3-fluoroquinolin-6-yl)amino)pyrimidin-2-yl)amino)-2-ethyl-5-methoxyphenyl)piperidin-4-yl)piperazin-1-yl)ethyl)-2,6-difluorophenyl)piperidine-2,6-dione]	94.98%
0.781 nM	90.5%	1.24 nM	CCc1cc(Nc2ncc(Br)c(Nc3ccc4nc(C)ccc4c3P(C)(C)=O)n2)c(OC)cc1N1CCC(N2CCN(C(=O)C3CCN(c4ccc5c(c4)n(C)c(=O)n5C4CCC(=O)NC4=O)CC3)CC2)CC1 (stereo not drawn) [Example 210, 3-(5-(4-(4-(1-(4-((5-bromo-4-((5-(dimethylphosphoryl)-2-methylquinolin-6-yl)amino)pyrimidin-2-yl)amino)-2-ethyl-5-methoxyphenyl)piperidin-4-yl)piperazine-1-carbonyl)piperidin-1-yl)-3-methyl-2-oxo-2,3-dihydro-1H-benzo[d]imidazol-1-yl)piperidine-2,6-dione]	92.69%
0.601 nM	93.6%	4.28 nM	CCc1cc(Nc2ncc(Br)c(Nc3ccc4ncn(C)c(=O)c4c3P(C)(C)=O)n2)c(OC)cc1N1CCC(N2CCN(CCc3cccc4c3n(C)c(=O)n4C3CCC(=O)NC3=O)CC2)CC1 (stereo not drawn) [Example 698, 3-(4-(2-(4-(1-(4-((5-bromo-4-((5-(dimethylphosphoryl)-3-methyl-4-oxo-3,4-dihydroquinazolin-6-yl)amino)pyrimidin-2-yl)amino)-2-ethyl-5-methoxyphenyl)piperidin-4-yl)piperazin-1-yl)ethyl)-3-methyl-2-oxo-2,3-dihydro-1H-benzo[d]imidazol-1-yl)piperidine-2,6-dione]	94.26%
